The source made the active and inactive calls. No cut-off for these calls is given here.
Legend:
[1] = AUC (0 to 24 hrs) in male C57BL/6 mouse at 1 mg/kg, iv measured after 24 hrs by LC-MS/MS analysis; assay type: ADME, organism-based; details: in vivo
[2] = Cmax in male C57BL/6 mouse at 1 mg/kg, iv measured after 24 hrs by LC-MS/MS analysis; assay type: ADME, organism-based; details: in vivo
THP-1 [3] = test: Downregulation of IFNB mRNA expression level in poly(I:C)-induced human THP-1 cells at 20 uM preincubated with compound for 12 hrs followed by poly(I:C) addition and measured after 8 hrs by RT-qPCR analysis; assay type: functional, cell-based; details: time 20.0 hrs
[4] = Cytotoxicity against mouse RAW-Lucia ISG cells assessed as reduction in cell viability at >30 uM incubated for 48 hrs by CCK8 assay; assay type: toxicity, cell-based
THP-1 [5] = test: Inhibition of cGAMP production in human THP-1 cells at 5 to 20 uM preincubated with compound for 36 hrs followed by HT-DNA addition and measured after 6 hrs by LC-MS analysis; assay type: functional, cell-based; details: dose 5-20 µM, time 42.0 hrs
THP-1 [6] = test: Inhibition of ds-DNA induced cGAS-STING signaling pathway in human THP-1 cells assessed as reduction in STING phosphorylation preincubated with compound for 40 hrs followed by HT-DNA addition and measured after 8 hrs by Western blot analysis; assay type: cell-based; details: dose 0.7-20 µM, time 48.0 hrs
Mus musculus [7] = test: (§1) Anti-inflammatory activity in DSS-induced ulcerative colitis C57BL/6 mouse model assessed as normal morphological appearance of spleen at 20 to 50 mg/kg/day, ip preadministered with DSS for 7 days followed by replacement with ultrapure water for 3 days with subsequent compound administration starting from day 4 to 10 and measured on day 11 by H and E staining based analysis; assay type: functional, organism-based; details: dose 20-50 mg/kg/day, time 8.0 day
[8] = Downregulation of cGAS protein level in human THP-1 cells at 10 uM incubated for 48 hrs by MS-based LFQ whole proteome analysis relative to control; assay type: functional
RAW264.7 [9] = test: Inhibition of ds-DNA induced cGAS-STING signaling pathway in mouse RAW264.7 cells assessed as reduction in IRF3 phosphorylation preincubated with compound for 40 hrs followed by HT-DNA addition and measured after 8 hrs by Western blot analysis; assay type: cell-based; details: dose 0.7-20 µM, time 48.0 hrs
THP1-Lucia ISG = test: (§2) Inhibition of dsDNA-induced cGAS signaling pathway in human THP1-Lucia ISG cells preincubated with compound for 24 hrs followed by HT-DNA addition and measured after 24 hrs by QUANTI-Luc luciferase reagent based assay; assay type: cell-based; details: time 48.0 hrs
[10] = as §2; assay type: cell-based
Mus musculus [11] = test: as §1, with “[…]” for “normal morphological appearance of”, “[…]” for “spleen”, “11” for “11 by H and E staining based analysis”; assay type: functional, organism-based; details: dose 20-50 mg/kg/day, time 8.0 day
[12] = Half-life in male C57BL/6 mouse at 1 mg/kg, iv measured after 24 hrs by LC-MS/MS analysis; assay type: ADME, organism-based; details: in vivo
Mus musculus [13] = test: as §1, with “increase in colon length” for “normal morphological appearance of spleen”, “11” for “11 by H and E staining based analysis”; assay type: functional, organism-based; details: dose 20-50 mg/kg/day, time 8.0 day
Mus musculus [14] = test: as §1, with “reduction in histopathological score” for “normal morphological appearance”, “colon” for “spleen”, “11” for “11 by H and E staining based analysis”; assay type: functional, organism-based; details: dose 20-50 mg/kg/day, time 8.0 day
Mus musculus [15] = test: as §1, with “decrease in body weight loss” for “normal morphological appearance of spleen”, “11” for “11 by H and E staining based analysis”; assay type: functional, organism-based; details: dose 20-50 mg/kg/day, time 8.0 day
[16] = biological target: T1, Protein cereblon/Cyclic GMP-AMP synthase (Homo sapiens, UniProt Q96SW2+Q8N884); test: PROTAC activity at CRBN/cGAS in human THP-1 cells assessed as induction of cGAS degradation at 10 uM by Western blot analysis; assay type: cell-based; details: time 1-24 hrs
T1 sequence (Q8N884 whole entry, looked up): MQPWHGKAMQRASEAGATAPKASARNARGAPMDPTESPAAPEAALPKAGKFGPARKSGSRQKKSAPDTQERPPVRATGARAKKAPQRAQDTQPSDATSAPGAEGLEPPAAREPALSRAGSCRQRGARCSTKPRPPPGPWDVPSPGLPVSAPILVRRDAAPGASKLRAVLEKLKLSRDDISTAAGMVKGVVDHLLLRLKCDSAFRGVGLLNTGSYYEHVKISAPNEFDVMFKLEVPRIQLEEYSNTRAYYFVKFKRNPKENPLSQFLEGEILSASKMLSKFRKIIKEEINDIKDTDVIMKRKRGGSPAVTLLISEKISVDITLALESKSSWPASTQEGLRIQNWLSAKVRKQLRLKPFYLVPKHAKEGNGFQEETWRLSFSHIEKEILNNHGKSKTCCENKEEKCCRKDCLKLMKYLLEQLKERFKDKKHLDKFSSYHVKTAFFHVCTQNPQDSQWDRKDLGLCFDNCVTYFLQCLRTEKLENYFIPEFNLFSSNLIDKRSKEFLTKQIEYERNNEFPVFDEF
T1 sequence (Q96SW2 whole entry, looked up): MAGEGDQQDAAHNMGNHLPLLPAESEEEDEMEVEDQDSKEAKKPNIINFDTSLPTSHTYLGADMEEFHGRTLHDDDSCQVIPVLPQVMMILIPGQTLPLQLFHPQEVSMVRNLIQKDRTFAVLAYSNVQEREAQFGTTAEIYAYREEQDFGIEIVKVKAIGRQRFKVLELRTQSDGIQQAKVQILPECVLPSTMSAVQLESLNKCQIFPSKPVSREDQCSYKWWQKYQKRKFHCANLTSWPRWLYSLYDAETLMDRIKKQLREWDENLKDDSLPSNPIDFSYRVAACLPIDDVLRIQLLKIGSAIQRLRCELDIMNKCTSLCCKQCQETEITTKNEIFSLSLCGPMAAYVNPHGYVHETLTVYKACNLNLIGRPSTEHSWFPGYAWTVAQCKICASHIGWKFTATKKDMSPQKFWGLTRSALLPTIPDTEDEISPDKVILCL

THP-1 [17] = test: Downregulation of IFNB mRNA expression level in ISD-induced human THP-1 cells at 20 uM preincubated with compound for 12 hrs followed by 45-bp immune stimulatory DNA addition and measured after 8 hrs by RT-qPCR analysis; assay type: functional, cell-based; details: time 20.0 hrs
RAW264.7 [18] = test: Downregulation of IFNB mRNA expression in mouse RAW264.7 cells preincubated with compound for 40 hrs followed by HT-DNA addition and measured after 8 hrs by qRT-PCR analysis; assay type: functional, cell-based; details: dose 2.5-20 µM, time 48.0 hrs
[19] = Cmax in male C57BL/6 mouse at 20 mg/kg, ip measured after 24 hrs by LC-MS/MS analysis; assay type: ADME, organism-based; details: in vivo
[20] = Half-life in male C57BL/6 mouse at 20 mg/kg, ip measured after 24 hrs by LC-MS/MS analysis; assay type: ADME, organism-based; details: in vivo
[21] = biological target: Protein cereblon/Cyclic GMP-AMP synthase (Mus musculus) (UniProt Q8C6L5+Q8C7D2); test: PROTAC activity at CRBN/cGAS in mouse RAW264.7 cells assessed as induction of cGAS degradation by measuring maximal efficacy at 20 uM preincubated with compound for 40 hrs followed by HT-DNA stimulation and measured after 8 hrs by Western blot analysis relative to control; assay type: cell-based; details: time 48.0 hrs
Chain of Protein cereblon/Cyclic GMP-AMP synthase (Mus musculus) (Q8C6L5 whole entry, looked up): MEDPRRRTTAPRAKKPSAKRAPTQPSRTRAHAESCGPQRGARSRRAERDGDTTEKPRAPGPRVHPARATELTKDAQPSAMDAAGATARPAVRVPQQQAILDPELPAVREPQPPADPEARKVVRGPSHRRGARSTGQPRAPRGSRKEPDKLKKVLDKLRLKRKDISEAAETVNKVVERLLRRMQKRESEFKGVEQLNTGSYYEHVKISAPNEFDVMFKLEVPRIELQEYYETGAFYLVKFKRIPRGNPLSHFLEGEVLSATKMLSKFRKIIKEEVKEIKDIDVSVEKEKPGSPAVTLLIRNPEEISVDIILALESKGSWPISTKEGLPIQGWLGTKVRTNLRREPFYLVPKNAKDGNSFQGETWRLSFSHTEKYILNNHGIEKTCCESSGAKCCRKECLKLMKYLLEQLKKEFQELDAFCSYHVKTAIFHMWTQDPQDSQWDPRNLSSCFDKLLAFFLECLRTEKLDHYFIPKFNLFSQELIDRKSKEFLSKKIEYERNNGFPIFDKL
Chain of Protein cereblon/Cyclic GMP-AMP synthase (Mus musculus) (Q8C7D2 whole entry, looked up): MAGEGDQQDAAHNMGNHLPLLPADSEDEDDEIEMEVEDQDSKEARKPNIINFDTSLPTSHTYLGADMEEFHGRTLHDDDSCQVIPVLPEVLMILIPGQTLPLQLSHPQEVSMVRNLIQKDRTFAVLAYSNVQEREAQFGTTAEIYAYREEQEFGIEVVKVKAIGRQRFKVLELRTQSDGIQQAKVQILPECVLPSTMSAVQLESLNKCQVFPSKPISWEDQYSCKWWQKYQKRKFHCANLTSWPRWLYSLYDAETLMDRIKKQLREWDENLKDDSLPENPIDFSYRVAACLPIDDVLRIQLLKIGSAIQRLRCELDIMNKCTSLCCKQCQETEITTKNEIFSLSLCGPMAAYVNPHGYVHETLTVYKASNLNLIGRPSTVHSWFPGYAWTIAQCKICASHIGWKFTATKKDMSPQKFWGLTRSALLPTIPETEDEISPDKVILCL

[22] = biological target: T1, Protein cereblon/Cyclic GMP-AMP synthase; test: PROTAC activity at CRBN/cGAS in human THP-1 cells assessed as induction of cGAS degradation at 10 uM preincubated with compound for 40 hrs followed by HT-DNA stimulation and measured after 8 hrs by Western blot analysis relative to control; assay type: cell-based; details: time 48.0 hrs
Mus musculus [23] = test: as §1, with “reduction in mucosal NET formation by measuring reduction in citH3 level in colon” for “normal morphological appearance of spleen”, “immunofluorescence imaging” for “H and E staining based”; assay type: functional, organism-based; details: dose 20-50 mg/kg/day, time 8.0 day
Mus musculus [24] = test: as §1, with “decrease in disease activity index” for “normal morphological appearance of spleen”, “11” for “11 by H and E staining based analysis”; assay type: functional, organism-based; details: dose 20-50 mg/kg/day, time 8.0 day
[25] = biological target: Cyclic GMP-AMP synthase (Homo sapiens) (UniProt Q8N884); test: Inhibition of cGAMP-induced cGAS signaling pathway in human THP1-Lucia ISG cells at 0.2 to 20 uM preincubated with compound for 2 hrs followed by cGAMP addition and measured after 24 hrs by QUANTI-Luc luciferase reagent based assay; assay type: cell-based; details: dose 0.2-20 µM, time 26.0 hrs
Chain of Cyclic GMP-AMP synthase (Homo sapiens) (Q8N884 whole entry): as the sequence (Q8N884 whole entry, looked up) above

THP-1 [26] = test: Cytotoxicity against human THP-1 cells assessed as reduction in cell viability upto 60 uM incubated for 48 hrs by CCK8 assay; assay type: toxicity, cell-based; details: thp-1, 48 h
[27] = Clearance in male C57BL/6 mouse at 1 mg/kg, iv measured after 24 hrs by LC-MS/MS analysis; assay type: ADME, organism-based; details: in vivo
RAW264.7 [28] = test: Inhibition of ds-DNA induced cGAS-STING signaling pathway in mouse RAW264.7 cells assessed as reduction in TBK1 phosphorylation preincubated with compound for 40 hrs followed by HT-DNA addition and measured after 8 hrs by Western blot analysis; assay type: cell-based; details: dose 0.7-20 µM, time 48.0 hrs
[29] = biological target: T1, Protein cereblon/Cyclic GMP-AMP synthase; test: PROTAC activity at CRBN/cGAS in human THP-1 cells assessed as induction of cGAS degradation at 10 uM preincubated with MG132 for 2 hrs followed by compound addition and measured after 48 hrs by Western blot analysis; assay type: cell-based
[30] = Cytotoxicity against human THP1-Lucia ISG cells assessed as reduction in cell viability upto 60 uM incubated for 48 hrs by CCK8 assay; assay type: toxicity, cell-based
[31] = Drug distribution in male C57BL/6 mouse colon at 20 mg/kg, ip measured after 2 to 24 hrs by LC-MS/MS analysis; assay type: ADME, organism-based; details: in vivo, time 2-24 hrs

AUC(0-t) at 24 h [1]: 530 ng·h/mL
Cmax [2]: 1610 ng/mL
IC50 [10]: 1800 nM
half-life [12]: 3 h
Activity [16]: Time-dependent-effect
Cmax [19]: 248 ng/mL
half-life [20]: 13.7 h
Emax [21]: 91.6%
Activity [22]: 78.9%
inhibition [25]: inactive
clearance [27]: 31.7 mL/min/kg
Activity [29]: inactive
Drug uptake [31]: Active
SMILES: Cn1ccc(-c2cc(Cl)c(Cl)c3[nH]c4c(c23)CN(C(=O)CNC(=O)CCCC#Cc2cccc3c2CN(C2CCC(=O)NC2=O)C3=O)CC4)n1 (configuration not stated)
Activity (THP-1 [3]): inactive
Activity [4]: Toxic
inhibition (THP-1 [5]): Active
inhibition (THP-1 [6]): Dose-dependent-effect
Activity (Mus musculus [7]): Active
Activity [8]: >80%
inhibition (RAW264.7 [9]): Dose-dependent-effect
inhibition (THP1-Lucia ISG): Dose-dependent-effect
Activity (Mus musculus [11]): Active
Activity (Mus musculus [13]): Active
Activity (Mus musculus [14]): Active
Activity (Mus musculus [15]): Active
Activity (THP-1 [17]): Active
Activity (RAW264.7 [18]): Dose-dependent-effect
Activity (Mus musculus [23]): Active
Activity (Mus musculus [24]): Active
Activity (THP-1 [26]): Non-toxic
inhibition (RAW264.7 [28]): Dose-dependent-effect
Activity [30]: Non-toxic
